Assay results from paper PMC9530963, “A cathelicidin antimicrobial peptide from Hydrophis cyanocinctus inhibits Zika virus infection by downregulating expression of a viral entry factor” (The Journal of Biological Chemistry, 2022).

Tests used:
[1] = test system: ZIKV; test: ZIKV replication stage, Vero cells (peptide added after infection); format: cell-based, ZIKV strain PRVABC59; details: 2.5 μM added after 2 h ZIKV infection (MOI = 1), 48 h, relative to PBS
Experimental: B–I, Vero (B–G), A549 (H), or U251 (I) cells were incubated with ZIKV (MOI = 1) at 37 °C for 2 h, washed with PBS, and transferred with fresh DMEM containing 2% FBS and Hc-CATH (2.5 μM), AC5 (2.5 μM), LL-37 (2.5 μM), or PBS (solvent of peptide). After culture at 37 °C for 48 h, intracellular ZIKV RNA (B), NS3 protein (C, D, H, and I), E protein level (E, the scale bar represents 50 μm), and extracellular ZIKV titer (F and G) were detected by qPCR, Western blot, immunofluorescence staining, and plaque-forming assay, respectively.
Vero cells were incubated with ZIKV (MOI = 1) at 37 °C for 2 h, washed three times with PBS, and transferred with fresh DMEM containing 2% FBS and Hc-CATH (2.5 μM), AC5 (2.5 μM), LL-37 (2.5 μM), or PBS. After culture at 37 °C for 48 h, intracellular ZIKV RNA, NS3 protein, E protein, and extracellular ZIKV titer were detected by qPCR, WB, IF, and plaque-forming assay, respectively. The effect of Hc-CATH on ZIKV replication stage was further tested in A549 and U251 cells under the same condition, and intracellular ZIKV NS3 protein was detected by WB.

[2] = test system: ZIKV; details: i.v. peptide 2 h after i.v. ZIKV 10^6 PFU/mouse, qPCR
Excerpt: At 4, 8, and 3 days post ZIKV inoculation, C57BL/6J mice, Ifnar1^−/− mice, and pregnant C57BL/6J mice were sacrificed, respectively. Tissues and fetal mice were collected for testing ZIKV RNA by qPCR. ns, not significant, ∗p < 0.05, ∗∗p < 0.01, and ∗∗∗p < 0.001. Hc-CATH, a cathelicidin antimicrobial peptide identified from the sea snake Hydrophis cyanocinctus; PFU, plaque-forming unit; qPCR, quantitative PCR; ZIKV, Zika virus.
To evaluate the therapeutic efficacy of Hc-CATH against ZIKV infection, C57BL/6J mice, Ifnar1^−/− mice, and pregnant C57BL/6J mice were intravenously administrated with Hc-CATH at 2 h after intravenous injection of ZIKV (10^6 PFU/mouse). C57BL/6J mice, Ifnar1^−/− mice, and pregnant C57BL/6J mice were sacrificed at 4, 8, and 3 days post ZIKV inoculation, respectively. Tissues and fetal mice were collected for testing ZIKV RNA level by qPCR.

[3] = test system: ZIKV; test: Leakage of ZIKV genomic RNA (micrococcal nuclease digestion); parameters: species or system ZIKV strain PRVABC59; details: 1, 20, and 40 μM, 37 °C 2 h; micrococcal nuclease 37 °C 4 h; qPCR of PrM, E, Cap
Experimental: Figure 8 Hc-CATH directly inactivates ZIKV particles by disrupting viral membrane.A, schematic diagram of B–G (Hc-CATH-Vero-pre). B–G, direct inactivation of ZIKV by Hc-CATH. ZIKVs (MOI = 1) were incubated with Hc-CATH (2.5 μM), AC5 (2.5 μM), LL-37 (2.5 μM), or PBS (peptide solvent) at 37 °C for 2 h, and then the ZIKV–PBS mixture and ZIKV–peptide mixture were centrifugated at 100,000g for 70 min. The pellets were washed with PBS and centrifugated at 100,000g for 70 min again. The pellets were resuspended in PBS, added to Vero cells, and incubated for 2 h. Cells were washed with PBS and cultured in fresh DMEM containing 2% FBS. […] Absorbance at 450 nm was measured after reactions were stopped using 0.5 M sulfuric acid. […] After the residual RNase was inactivated, the undigested genomic RNA in the intact ZIKV particles was extracted and quantified by testing the genes of PrM, E, and Cap proteins, respectively. ∗∗p < 0.01 and ∗∗∗p < 0.001.
For assay of the disruption of viral membrane by Hc-CATH, ZIKV (about 10^5 PFU) was incubated with Hc-CATH (1, 20, and 40 μM), PBS, or 1% Triton X-100 (positive control) at 37 °C for 2 h. […] The residual RNase was inactivated, the undigested genomic RNA in the intact ZIKV particles was extracted and quantified by testing viral genes encoding membrane protein (PrM), E protein, and capsid (Cap) protein, respectively ([43]).

KFFKRLLKSVRRAVKKFRKKPRLIGLSTLL [Hc-CATH, cathelicidin antimicrobial peptide identified from the sea snake Hydrophis cyanocinctus]
intracellular ZIKV RNA, NS3 protein, E protein, extracellular ZIKV titer, peptide maintained after infection [1]: did not reduce
ZIKV replication in C57BL/6J mice, therapeutic ([2]; 4 days, tissue ZIKV RNA): significantly attenuated ZIKV replication
ZIKV replication in Ifnar1−/− mice, therapeutic ([2]; 8 days, tissue ZIKV RNA): significantly attenuated ZIKV replication
ZIKV replication in fetal placenta and fetal mice, therapeutic ([2]; pregnant C57BL/6J mice, 3 days): significantly attenuated ZIKV replication
genomic RNA of peptide-treated virions (leakage) [3]: digested by micrococcal nuclease
